According to paper PMC4501006, “Preliminary Characterization and In Vivo Studies of Structurally Identical ^18F- and ^125I-Labeled Benzyloxybenzenes for PET/SPECT Imaging of β-Amyloid Plaques” (Scientific Reports, 2015):

Key:
[1] = Partition coefficient determination (log D); type: physicochemical
Protocol: An ideal Aβ imaging probe would combine a high binding affinity to Aβ plaques and excellent pharmacokinetics with high initial brain uptake and rapid washout from normal brain regions. Thus, the partition coefficients of these four radiolabeled ligands were determined to estimate their ability to penetrate the BBB.

[2] = In vivo biodistribution in normal ICR mice; details: i.v.
[3] = target: Aβ plaques (Homo sapiens, UniProt P05067); assay: In vitro autoradiography on AD human brain sections; type: binding
Text: Figure 5 In vitro autoradiography of [^125I]7a (a–d), [^18F]7a (e–h), [^125I]12a (i–l) and [^18F]12a (m–p).

Aβ plaques, sequence (P05067 672-711 limits assumed): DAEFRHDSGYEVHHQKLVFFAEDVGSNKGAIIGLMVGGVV

SMILES: [18F]CCOc1ccc(COc2ccc(I)cc2)cc1 [[^18F]12a]
- logD [1]: 3.84 ± 0.07
- brain2 min/brain60 min ratio [2]: 1.6
- Biodistribution of radioactivity, blood ([2]; 2 min): 7.53 ± 0.80 % injected dose per gram
- Biodistribution of radioactivity, bone ([2]; 2 min): 2.55 ± 0.29 % injected dose per gram
- Biodistribution of radioactivity, brain ([2]; 2 min): > 5 % injected dose per gram
- Biodistribution of radioactivity, heart ([2]; 2 min): 9.11 ± 1.07 % injected dose per gram
- Biodistribution of radioactivity, intestine ([2]; 2 min): 7.72 ± 0.54 % injected dose per organ
- Biodistribution of radioactivity, kidney ([2]; 2 min): 11.63 ± 0.86 % injected dose per gram
- Biodistribution of radioactivity, liver ([2]; 2 min): 13.20 ± 1.45 % injected dose per gram
- Biodistribution of radioactivity, lung ([2]; 2 min): 9.17 ± 1.10 % injected dose per gram
- Biodistribution of radioactivity, muscle ([2]; 2 min): 5.38 ± 0.47 % injected dose per gram
- Biodistribution of radioactivity, pancreas ([2]; 2 min): 8.75 ± 0.33 % injected dose per gram
- Biodistribution of radioactivity, spleen ([2]; 2 min): 4.98 ± 0.32 % injected dose per gram
- Biodistribution of radioactivity, stomach ([2]; 2 min): 1.70 ± 0.08 % injected dose per organ
- Biodistribution of radioactivity, brain ([2]; 2 min, listed as [18F]12a): 6.76 ± 0.41 % injected dose per gram
- Biodistribution of radioactivity, blood ([2]; 10 min): 4.55 ± 0.36 % injected dose per gram
- Biodistribution of radioactivity, bone ([2]; 10 min): 2.13 ± 0.27 % injected dose per gram
- Biodistribution of radioactivity, brain ([2]; 10 min): 5.73 ± 0.44 % injected dose per gram
- Biodistribution of radioactivity, heart ([2]; 10 min): 4.40 ± 0.36 % injected dose per gram
- Biodistribution of radioactivity, intestine ([2]; 10 min): 6.94 ± 0.53 % injected dose per organ
- Biodistribution of radioactivity, kidney ([2]; 10 min): 6.19 ± 0.46 % injected dose per gram
- Biodistribution of radioactivity, liver ([2]; 10 min): 4.74 ± 0.36 % injected dose per gram
- Biodistribution of radioactivity, lung ([2]; 10 min): 4.91 ± 0.60 % injected dose per gram
- Biodistribution of radioactivity, muscle ([2]; 10 min): 3.92 ± 0.41 % injected dose per gram
- Biodistribution of radioactivity, pancreas ([2]; 10 min): 3.96 ± 0.27 % injected dose per gram
- Biodistribution of radioactivity, spleen ([2]; 10 min): 3.55 ± 0.26 % injected dose per gram
- Biodistribution of radioactivity, stomach ([2]; 10 min): 1.54 ± 0.32 % injected dose per organ
- Biodistribution of radioactivity, blood ([2]; 30 min): 5.91 ± 0.33 % injected dose per gram
- Biodistribution of radioactivity, bone ([2]; 30 min): 3.31 ± 0.21 % injected dose per gram
- Biodistribution of radioactivity, brain ([2]; 30 min): 5.02 ± 0.32 % injected dose per gram
- Biodistribution of radioactivity, heart ([2]; 30 min): 5.41 ± 0.36 % injected dose per gram
- Biodistribution of radioactivity, intestine ([2]; 30 min): 8.09 ± 0.43 % injected dose per organ
- Biodistribution of radioactivity, kidney ([2]; 30 min): 6.19 ± 0.37 % injected dose per gram
- Biodistribution of radioactivity, liver ([2]; 30 min): 4.84 ± 0.28 % injected dose per gram
- Biodistribution of radioactivity, lung ([2]; 30 min): 5.34 ± 0.31 % injected dose per gram
- Biodistribution of radioactivity, muscle ([2]; 30 min): 4.71 ± 0.50 % injected dose per gram
- Biodistribution of radioactivity, pancreas ([2]; 30 min): 4.55 ± 0.36 % injected dose per gram
- Biodistribution of radioactivity, spleen ([2]; 30 min): 4.29 ± 0.36 % injected dose per gram
- Biodistribution of radioactivity, stomach ([2]; 30 min): 2.09 ± 0.32 % injected dose per organ
- Biodistribution of radioactivity, blood ([2]; 60 min): 5.87 ± 0.19 % injected dose per gram
- Biodistribution of radioactivity, bone ([2]; 60 min): 3.51 ± 0.78 % injected dose per gram
- Biodistribution of radioactivity, brain ([2]; 60 min): 4.26 % injected dose per gram
- Biodistribution of radioactivity, heart ([2]; 60 min): 4.76 ± 0.40 % injected dose per gram
- Biodistribution of radioactivity, intestine ([2]; 60 min): 8.50 ± 1.23 % injected dose per organ
- Biodistribution of radioactivity, kidney ([2]; 60 min): 5.48 ± 0.41 % injected dose per gram
- Biodistribution of radioactivity, liver ([2]; 60 min): 4.64 ± 0.21 % injected dose per gram
- Biodistribution of radioactivity, lung ([2]; 60 min): 5.19 ± 0.36 % injected dose per gram
- Biodistribution of radioactivity, muscle ([2]; 60 min): 4.51 ± 0.49 % injected dose per gram
- Biodistribution of radioactivity, pancreas ([2]; 60 min): 3.95 ± 0.25 % injected dose per gram
- Biodistribution of radioactivity, spleen ([2]; 60 min): 3.87 ± 0.34 % injected dose per gram
- Biodistribution of radioactivity, stomach ([2]; 60 min): 1.70 ± 0.29 % injected dose per organ
- Biodistribution of radioactivity, brain ([2]; 60 min, listed as [18F]12a): 4.26 ± 0.18 % injected dose per gram
- in vitro autoradiography, plaque labeling [3]: specifically label Aβ deposits
